In US12440476B2, “Agents that target telomerase reverse transcriptase (TERT) for treating cancer and sensitizing cancer cells to genotoxic therapy” (Northwestern University, priority 2022, dated 2025):

Key:
CT26 subcutaneous tumors = assay: Subcutaneous CT26 tumor growth, NU-1 with or without 10 Gy; format: in vivo, BALB/c mice
Method: (§1) For tumor inoculation, 7-9 week BALB/c mice or NSG mice were subcutaneously injected in the flank with 0.5×10^6 CT26 cells in 100 μL PBS. On Day 9 (tumor average volume ˜30 mm^3), the tumor bearing BALB/c mice were randomly divided into 4 groups of 8, while the NSG mice were randomly divided into 2 groups of 5-6. For NU-1 treatment, 10 mg/kg of NU-1 in 100 μL PBS was injected intraperitoneally once on each of the 2 days before, the day of and 2 days after irradiation. Mouse weight was measured before treatment. Tumor irradiation was conducted on Day 11 using a RadSource RS-2000 X-Ray generator operating at 160 kV and 25 mA at 10 Gy, calibrated by NIST traceable dosimetry. From Day 7 after tumor inoculation, tumors were measured by calipers every 2-3 days and volume calculated using the formula: Tumor volume (mm^3)=length (mm)×width (mm)×width (mm)[…]. On Day 18 after tumor inoculation, tumors from 3 mice under each treatment condition were collected for histology analysis. The rest of the mice were continuously maintained and recorded until at least Day 28 or reaching the humane endpoint for tumor volume. No animals that formed tumors after injection with CT26 cells were excluded from any studies reported here.
CT26 tumors were collected 5 days after treatment (Day 18 after tumor inoculation) and fixed in 10% neutral formalin for 24 h. Formaldehyde-fixed paraffin-embedded (FFPE) tumors were sectioned and stained with hematoxylin and eosin (H&E) by the Human Tissue Resource Center at The University of Chicago. To perform immunofluorescence analysis, tumor sections were deparaffinized in xylene for 10 min, then rehydrated with 95%, 70%, 50%, and 0% ethanol for 5 min each. After that, the tumor section was immersed in 10 mM sodium citrate buffer (pH 6.0) for 30 min at 90° C. for antigen retrieval. Then the tumor sections were blocked in 5% BSA-TBS, stained with anti-Ki67 (1:1000), anti-γH2AX (1:500), anti-CD45 (1:500), anti-CD11c (1:250), anti-CD8 (1:250), anti-granzyme B (1:250) and anti-PD-L1 primary antibodies diluted in 5% BSA-TBS at 4° C. overnight. Followed by washing with TBST, tumor sections were stained with fluorophore-conjugated secondary antibodies (1:2000, Vector Labs) and DAPI (1 μg/mL) diluted in 5% BSA-TBS for 90 min at room temperature. The H&E stained tissue sections were scanned using an Olympus VS200 SlideView Whole Slide Scanner. The fluorescent tumor sections were imaged using a 3i Marianas Spinning Disk Confocal with a 20× objective and pseudo-colored using Fiji. Detailed primary antibody information is provided in Key resources table.

CT26 cells = assay: Clonogenicity assay (inhibitor alone); format: cell-based, mouse; settings: 1 μM NU-1, 2 μM MST, 20 μM BIBR
Method: MCF7, Saos-2, or CT26 cells were seeded in 6-well plates at 100 cells per well in triplicate and allowed to attach overnight. MCF7 or CT26 cells were then treated with DMSO vehicle or TERT inhibitors in final concentration of 0.25, 0.5, 0.75, 1, 2 μM for NU-1, 2.5, 5, 7.5, 10, 20 μM for BIBR 1532, or 1, 2, 3, 4, 5 μM for MST-312. Saos-2 cells were treated with DMSO vehicle or TERT inhibitors in final concentration of 0.25, 0.5, 0.75, 1, 2 μM for NU-1 or 2.5, 5, 10, 20, 40 μM for BIBR 1532. The final volume of cell culture medium was 3 mL per well. MCF7 and Saos-2 cells were continuously cultured for 3 weeks and CT26 for 2 weeks in the presence of TERT inhibitors, fixed in methanol for 5 min, then stained with 0.5% crystal violet for 10 min at room temperature. After washing with water, the plates were dried at room temperature and imaged with an iBright Imaging System (Thermo Fisher Scientific).

CT26 tumors = assay: Subcutaneous CT26 tumor growth, IR with or without NU-1, immunodeficient host; format: in vivo; settings: NSG mice
Method: as §1
CT26 tumors were collected 5 days after treatment (Day 18 after tumor inoculation) and fixed in 10% neutral formalin for 24 h. […]

MCF7 cells = assay: Senescence-associated beta-galactosidase (SA-β-Gal) assay; format: cell-based, human; settings: 50 nM, 7 days after IR
Method: MCF7, Saos-2, or CT26 cells were seeded at 3×10^4 per well in 6-well plates and allowed to attach to plate overnight. […] Then MCF7 and Saos-2 cells were irradiated with 0 or 6 Gy and CT26 cells with 0 or 10 Gy. After IR, MCF7 and Saos-2 cells were continuously cultured for 7 days and CT26 for 5 days, then fixed in 2% PFA and stained with staining buffer (1 mg/ml X-Gal (Golden Bio), 40 mM citric acid/sodium phosphate, 150 mM NaCl, 2 mM MgCl2, 3.3 mM K3[Fe(CN)6], 3.3 mM K4[Fe(CN)6], pH=6) for 16 h at 37° C., then washed with warm PBS three times and imaged in PBS within a week. Images were captured on a Zeiss Axiovert 200M microscope with a 20× Plan-NeoFluar objective and Axiocam digital camera. SA-β-Gal-positive and -negative cells were counted in more than 5 fields, yielding an average percentage indicated on each SA-β-Gal image as mean±SD. Three replicates were performed.

MCF7-FUCCI cells = assay: Time-lapse live-cell analysis of cell cycle; format: cell-based, human; settings: 0.5 μM for 1 h, then 6 Gy, 6 days
Method: MCF7-FUCCI cells were seeded at 3×10^4 per well in 6-well plates, allowed to attach overnight, then treated with 0.5 μM NU-2 control, NU-1 or chrolactomycin for 1 h, followed by 6 Gy. Then, live-cell imaging was conducted using the IncuCyteS3. Phase contrast along with green and red channels were acquired at 20× magnification with scanning every 2 h for 6 days. 16 non-overlapping fields were captured for each well. Representative consecutive images were used to create the movies using Fiji (Schindelin et al., 2012).

[1] = IR + NU-1, tumors removed on Day 18

C=C1C(=O)[C@](C)(C(=O)OC)[C@H](CCc2cn(Cc3ccc(F)cc3F)nn2)O[C@@H]1C [NU-1]
Effect on tumor growth, NU-1 alone (CT26 subcutaneous tumors; 10 mg/kg IP daily Days 9 to 13, no IR): no appreciable effect | Tumors eliminated within two weeks after treatment (CT26 subcutaneous tumors; IR (10 Gy, Day 11) + NU-1 10 mg/kg IP Days 9 to 13): 7 of 8 | Tumor immune infiltration (CT26 subcutaneous tumors; IR + NU-1, Day 18 tumor sections): markedly higher tumor immune infiltration | Tumor recurrence after clearance (CT26 subcutaneous tumors; IR + NU-1, followed 54 days): did not recur | Ki-67 expression in tumors vs IR alone (CT26 subcutaneous tumors; [1]): lower expression of proliferation marker Ki-67 | Persistent γH2AX in tumors vs IR alone (CT26 subcutaneous tumors; [1]): upregulation of persistent γH2AX | PD-L1 in tumors (CT26 subcutaneous tumors; IR + NU-1 vs IR alone): less increase in PD-L1 | Tolerance in clonogenic assay (inhibitor alone) (CT26 cells): tolerated | Tumor elimination (CT26 tumors; IR + NU-1): no longer sufficient to eliminate tumors | Tumor growth delay (CT26 tumors; IR + NU-1 vs IR alone): enhanced growth delay | Enhancement of senescence after IR at low concentration (MCF7 cells): sufficient to enhance senescence after IR | Surviving cells arrested with G1 marker expression and senescent morphology (MCF7-FUCCI cells): ~80%
